One data set addresses T1, human TLR7 (Homo sapiens, UniProt Q9NYK1).
T1 construct: host or cells: HEK293 (HEK-Blue hTLR7)
T1 sequence (Q9NYK1 27-1049): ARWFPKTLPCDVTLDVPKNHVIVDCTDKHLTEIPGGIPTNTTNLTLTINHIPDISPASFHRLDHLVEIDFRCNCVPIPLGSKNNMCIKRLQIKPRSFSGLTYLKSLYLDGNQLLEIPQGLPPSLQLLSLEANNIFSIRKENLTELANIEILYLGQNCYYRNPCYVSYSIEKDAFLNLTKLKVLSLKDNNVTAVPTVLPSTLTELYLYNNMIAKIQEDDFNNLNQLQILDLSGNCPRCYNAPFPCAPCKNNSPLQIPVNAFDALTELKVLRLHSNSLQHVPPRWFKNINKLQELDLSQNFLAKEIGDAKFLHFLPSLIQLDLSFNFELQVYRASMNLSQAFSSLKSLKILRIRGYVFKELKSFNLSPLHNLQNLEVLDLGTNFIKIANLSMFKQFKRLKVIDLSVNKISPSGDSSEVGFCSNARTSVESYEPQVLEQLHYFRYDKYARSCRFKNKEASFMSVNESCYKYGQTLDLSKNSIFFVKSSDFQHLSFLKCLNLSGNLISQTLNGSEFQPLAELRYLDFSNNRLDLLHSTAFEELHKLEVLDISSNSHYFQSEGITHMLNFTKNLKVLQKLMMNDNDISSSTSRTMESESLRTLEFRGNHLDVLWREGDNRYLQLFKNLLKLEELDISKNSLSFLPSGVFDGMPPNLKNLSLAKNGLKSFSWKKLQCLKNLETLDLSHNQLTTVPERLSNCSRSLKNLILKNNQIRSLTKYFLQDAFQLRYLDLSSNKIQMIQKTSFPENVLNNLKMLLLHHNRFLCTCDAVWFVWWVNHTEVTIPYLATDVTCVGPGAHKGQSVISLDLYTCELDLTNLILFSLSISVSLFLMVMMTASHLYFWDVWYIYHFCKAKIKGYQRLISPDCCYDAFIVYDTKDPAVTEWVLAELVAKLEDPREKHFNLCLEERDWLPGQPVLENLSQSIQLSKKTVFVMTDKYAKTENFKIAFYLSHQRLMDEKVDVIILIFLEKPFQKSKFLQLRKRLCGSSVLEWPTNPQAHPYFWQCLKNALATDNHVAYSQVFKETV
The data set can be described thus: HEK293-Blue-hTLR-7 cells assay (SEAP reporter, R848 stimulation). The data set is classed as cell-based. The note with it: HEK293-Blue-hTLR7 cells, R848 ligand, 20 hrs incubation; read-out: HEK/hTLR7 IC50. From the text: HEK293-Blue-hTLR-7 Cells Assay:
A stable HEK293-Blue-hTLR-7 cell line was purchased from InvivoGen (Cat. #: hkb-htlr7, San Diego, Calif., USA). These cells were originally designed for studying the stimulation of human TLR7 by monitoring the activation of NF-κB. A SEAP (secreted embryonic alkaline phosphatase) reporter gene was placed under the control of the IFN-β minimal promoter fused to five NF-κB and AP-1-binding sites. The SEAP was induced by activating NF-κB and AP-1 via stimulating HEK-Blue hTLR7 cells with TLR7 ligands. Therefore the reporter expression was declined by TLR7 antagonist under the stimulation of a ligand, such as R848 (Resiquimod), for incubation of 20 hrs. The cell culture supernatant SEAP reporter activity was determined using QUANTI-Blue™ kit (Cat. #: rep-qb1, Invivogen, San Diego, Ca, USA) at a wavelength of 640 nm, a detection medium that turns purple or blue in the presence of alkaline phosphatase.
HEK293-Blue-hTLR7 cells were incubated at a density of 250,000-450,000 cells/mL in a volume of 170 μL in a 96-well plate in Dulbecco's Modified Eagle's medium (DMEM) containing 4.5 g/L glucose, 50 U/mL penicillin, […], […], 2 mM L-glutamine, 10% (v/v) heat-inactivated fetal bovine serum with addition of 20 μL test compound in a serial dilution in the presence of final DMSO at 1% and 10 μL of 20 uM R848 in above DMEM, perform incubation under 37° C. in a CO2 incubator for 20 hrs. Then 20 μL of the supernatant from each well was incubated with 180 μL Quanti-blue substrate solution at 37° C. for 2 hrs and the absorbance was read at 620˜655 nm using a spectrophotometer. The signaling pathway that TLR7 activation leads to downstream NF-κB activation has been widely accepted, and therefore similar reporter assay was modified for evaluating TLR7 antagonist.

The nature of data set [1]: Human microsomal stability assay. The data set is classed as in vitro ADME. The following applies: human liver microsomes, 1 μM test compound, 0.5 mg/mL protein, 37° C.; low <7.0, medium 7.0-16.2, high 16.2-23.2. On the procedure:
Human Microsomal Stability Assay
Human liver microsomes (Cat. NO.: 452117, Corning, USA) were preincubated with test compound for 10 minutes at 37° C. in 100 mM potassium phosphate buffer, pH 7.4. The reactions were initiated by adding NADPH regenerating system. The final incubation mixtures contained 1 μM test compound, 0.5 mg/mL liver microsomal protein, 1 mM MgCl2, 1 mM NADP, 1 unit/mL isocitric dehydrogenase and 6 mM isocitric acid in 100 mM potassium phosphate buffer, pH 7.4. After incubation times of 0, 3, 6, 9, 15 and 30 minutes at 37° C., 300 μL of cold ACN (including internal standard) was added to 100 μL incubation mixture to terminate the reaction. Following precipitation and centrifugation, 100 uL supernatant will be taken out and added 300 uL water.
The amount of compound remaining in the samples was determined by LC-MS/MS. Controls of no NADPH regenerating system at zero and 30 minutes were also prepared and analyzed. The results were categorized as: low (<7.0 mL/min/kg), medium (7.0-16.2 mL/min/kg) and high (16.2-23.2 mL/min/kg).
For orientation: Liver microsomes are a subcellular fraction often used to study metabolism.

For the compound `C[C@@H]1CN(c2cc(=O)n(C)c3ncccc23)C[C@@H]2c3ccc(N4CCOC5(CNC5)C4)cc3CN12` [Example 11, 4-[(4R,10bS)-4-methyl-8-(5-oxa-2,8-diazaspiro[3.5]nonan-8-yl)-3,4,6,10b-tetrahydro-1H-pyrazino[2,1-a]isoindol-2-yl]-1-methyl-1,8-naphthyridin-2-one], the IC50 on human TLR7 is 30.5 nM. Moreover, the “CL (h)” value in data set [1] was 6.9 mL/min/kg.
The corresponding values for `C[C@@H]1CN(c2cc(=O)n(C)c3ncccc23)C[C@@H]2c3ccc(N4CCNCC4)cc3CN12` [Example 12, 4-[(4R,10bS)-4-methyl-8-piperazin-1-yl-3,4,6,10b-tetrahydro-1H-pyrazino[2,1-a]isoindol-2-yl]-1-methyl-1,8-naphthyridin-2-one] are 11.9 nM and 6.2 mL/min/kg.
For the compound `C[C@@H]1CN(c2cc(=O)n(C)c3ncccc23)C[C@@H]2c3ccc(N4CCN[C@@H](C)C4)cc3CN12` [Example 13, 4-[(4R,10bS)-4-methyl-8-[(3S)-3-methylpiperazin-1-yl]-3,4,6,10b-tetrahydro-1H-pyrazino[2,1-a]isoindol-2-yl]-1-methyl-1,8-naphthyridin-2-one], at human TLR7, the IC50 was found to be 13 nM. In addition, the “CL (h)” value in data set [1] was 7.9 mL/min/kg.
The corresponding values for `C[C@@H]1CN(c2cc(=O)n(C)c3ncccc23)C[C@@H]2c3ccc(N4CCC[C@](C)(N)C4)cc3CN12` [Example 15, 4-[(4R,10bS)-8-[(3S)-3-amino-3-methyl-1-piperidyl]-4-methyl-3,4,6,10b-tetrahydro-1H-pyrazino[2,1-a]isoindol-2-yl]-1-methyl-1,8-naphthyridin-2-one] are 12 nM and 8.0 mL/min/kg.
`C[C@@H]1CN(c2cc(=O)n(C)c3ncccc23)C[C@@H]2c3ccc(N4CCC[C@@H](N)C4)cc3CN12` [Example 16, 4-[(4R,10bS)-8-[(3R)-3-amino-1-piperidyl]-4-methyl-3,4,6,10b-tetrahydro-1H-pyrazino[2,1-a]isoindol-2-yl]-1-methyl-1,8-naphthyridin-2-one]: on human TLR7, the IC50 came to 15.9 nM. Moreover, in data set [1], the “CL (h)” value stood at 8.5 mL/min/kg.
Take `C[C@@H]1CN(c2cc(=O)n(C)c3ncccc23)C[C@@H]2c3ccc(N4CCC(C)(N)CC4)cc3CN12` [Example 18, 4-[(4R,10bS)-8-(4-amino-4-methyl-1-piperidyl)-4-methyl-3,4,6,10b-tetrahydro-1H-pyrazino[2,1-a]isoindol-2-yl]-1-methyl-1,8-naphthyridin-2-one]: the IC50 on human TLR7 worked out at 9.8 nM. Besides, the “CL (h)” value in data set [1] stood at 6.2 mL/min/kg.
The corresponding values for `C[C@@H]1CN(c2cc(=O)n(C)c3ncccc23)C[C@@H]2c3ccc(N4C[C@@H]5C[C@H]4CN5)cc3CN12` [Example 19, 4-[(4R,10bS)-8-[(1S,4S)-2,5-diazabicyclo[2.2.1]heptan-2-yl]-4-methyl-3,4,6,10b-tetrahydro-1H-pyrazino[2,1-a]isoindol-2-yl]-1-methyl-1,8-naphthyridin-2-one] are 15.6 nM and 6.2 mL/min/kg.
In the case of `C[C@@H]1CN(c2cc(=O)n(C)c3ncccc23)C[C@@H]2c3ccc(N4C[C@H]5C[C@@H]4CN5)cc3CN12` [Example 20, 4-[(4R,10bS)-8-[(1R,4R)-2,5-diazabicyclo[2.2.1]heptan-2-yl]-4-methyl-3,4,6,10b-tetrahydro-1H-pyrazino[2,1-a]isoindol-2-yl]-1-methyl-1,8-naphthyridin-2-one], at human TLR7, the IC50 was 52.1 nM. For the same compound, the “CL (h)” value in data set [1] was determined as 6.2 mL/min/kg.
The like results for `C[C@@H]1CN(c2cc(=O)n(C)c3ncccc23)C[C@@H]2c3ccc(N4CC5CCC(C4)N5)cc3CN12` [Example 21, 4-[(4R,10bS)-8-(3,8-diazabicyclo[3.2.1]octan-3-yl)-4-methyl-3,4,6,10b-tetrahydro-1H-pyrazino[2,1-a]isoindol-2-yl]-1-methyl-1,8-naphthyridin-2-one] were, in that order, 13.7 nM and 6.4 mL/min/kg.
The like results for `C[C@@H]1CN(c2cc(=O)n(C)c3ncccc23)C[C@@H]2c3ccc(OCCN(C)C)cc3CN12` [Example 23, 4-[(4R,10bS)-8-[2-(dimethylamino)ethoxy]-4-methyl-3,4,6,10b-tetrahydro-1H-pyrazino[2,1-a]isoindol-2-yl]-1-methyl-1,8-naphthyridin-2-one] were, in that order, 31 nM and 6.2 mL/min/kg.
Take `C[C@@H]1CN(c2cc(=O)n(C)c3ncccc23)C[C@@H]2c3ccc(C4CCNCC4)cc3CN12` [Example 24, 4-[(4R,10bS)-4-methyl-8-(4-piperidyl)-3,4,6,10b-tetrahydro-1H-pyrazino[2,1-a]isoindol-2-yl]-1-methyl-1,8-naphthyridin-2-one]: the IC50 on human TLR7 was 3.7 nM. Also, in data set [1], the “CL (h)” value was 6.2 mL/min/kg.
As to `C[C@@H]1CN(c2cc(=O)n(C)c3ncccc23)C[C@@H]2c3ccc(C4CCCNC4)cc3CN12` (stereo partly drawn) [Example 25, 4-[(4R,10bS)-4-methyl-8-(3-piperidyl)-3,4,6,10b-tetrahydro-1H-pyrazino[2,1-a]isoindol-2-yl]-1-methyl-1,8-naphthyridin-2-one], the IC50 at human TLR7 is 6.7 nM. Also, in data set [1], the “CL (h)” value was 6.2 mL/min/kg.
For `C[C@@H]1CN(c2cc(=O)n(C)c3ncccc23)C[C@@H]2c3ccc(C4CCNC4)cc3CN12` (stereo partly drawn) [Example 26, 4-[(4R,10bS)-4-methyl-8-pyrrolidin-3-yl-3,4,6,10b-tetrahydro-1H-pyrazino[2,1-a]isoindol-2-yl]-1-methyl-1,8-naphthyridin-2-one], at human TLR7, the IC50 came to 8.3 nM. The “CL (h)” value in data set [1] is 9.8 mL/min/kg.
As to `C[C@@H]1CN(c2cc(=O)n(C)c3ncccc23)C[C@@H]2c3ccc([C@H]4CC[C@H](N5CCOCC5)CC4)cc3CN12` [Example 27A, 4-[(4R,10bS)-4-methyl-8-(trans-4-morpholinocyclohexyl)-3,4,6,10b-tetrahydro-1H-pyrazino[2,1-a]isoindol-2-yl]-1-methyl-1,8-naphthyridin-2-one], at human TLR7, the IC50 stood at 7 nM. Further, in data set [1], the “CL (h)” value is 7.3 mL/min/kg.
